The values below come from patent US10219516B2, “Molecules having pesticidal utility, and intermediates, compositions, and processes, related thereto” (priority 2015, dated 2019).

Each structure is given as a SMILES string. Like-named read-outs stand apart in the source and are kept apart here.

Test [1] concerns Cabbage Looper (Trichoplusia ni, TRIPNI). Description: Bioassay on Cabbage Looper (CL), 128-well diet tray assay. The test is classed as in vivo. The note with it: for pest or weed control at 50 µg/cm2: Trichoplusia ni. The protocol:
(§1) Certain molecules disclosed in this document were tested against BAW and CL using procedures described in the following examples. In the reporting of the results, the “BAW & CL Rating Table” was used (See Table Section).
Bioassays on CL were conducted using a 128-well diet tray assay. one to five second instar CL larvae were placed in each well (3 mL) of the diet tray that had been previously filled with 1 mL of artificial diet to which 50 μg/cm^2 of the test molecule (dissolved in 50 μL of 90:10 acetone-water mixture) had been applied (to each of eight wells) and then allowed to dry. Trays were covered with a clear self-adhesive cover, vented to allow gas exchange, and held at 25° C., 14:10 light-dark for five to seven days. Percent mortality was recorded for the larvae in each well; activity in the eight wells was then averaged. The results are indicated in the table entitled “Table ABC: Biological Results” (See Table Section).

The subject of test [2] is Beet Armyworm (Spodoptera exigua, LAPHEG). The experiment in a line: Bioassay on Beet Armyworm (BAW), 128-well diet tray assay. It counts as in vivo. The protocol:
as §1
Bioassays on BAW were conducted using a 128-well diet tray assay. One to five second instar BAW larvae were placed in each well (3 mL) of the diet tray that had been previously filled with approximately 1.5 mL of artificial diet to which 50 μg/cm^2 of the test molecule (dissolved in 50 μL of 90:10 acetone-water mixture) had been applied (to each of eight wells) and then allowed to dry. Trays were covered with a clear self-adhesive cover, vented to allow gas exchange, and held at 25° C., 14:10 light-dark for five to seven days. Percent mortality was recorded for the larvae in each well; activity in the eight wells was then averaged. The results are indicated in the table entitled “Table ABC: Biological Results” (See Table Section).

Setting [3] is: Species CL (Cabbage Looper), read-out: CL (Biological Results, rating).
[4] abbreviates: Species BAW (Beet Armyworm), read-out: BAW (Biological Results, rating).
Where [5] appears, read: Beet Armyworm, 128-well diet tray assay, read-out: BAW rating.
Setting [6] is: Cabbage Looper, 128-well diet tray assay, read-out: CL rating.

On to `N#Cc1ccc(NC(=O)c2cc(NC(=O)[C@H]3[C@H](c4cc(Cl)cc(Cl)c4)C3(Cl)Cl)ccc2Cl)cc1` (relative stereo) [F5, trans-2-Chloro-N-(4-cyanophenyl)-5-(2,2-dichloro-3-(3,5-dichlorophenyl)cyclopropane-1-carboxamido)benzamide], for which the pest or weed control at 50 µg/cm2 in test [1] (setting [3]) and in test [2] (setting [4]) was 50 to 100% each time. With `O=C(Nc1ccc(C(F)(F)F)cc1)c1cc(NC(=O)[C@H]2[C@H](c3cc(Cl)cc(Cl)c3)C2(Cl)Cl)ccc1Cl` (relative stereo) [F6, trans-2-Chloro-5-(2,2-dichloro-3-(3,5-dichlorophenyl)cyclopropane-1-carboxamido)-N-(4-(trifluoromethyl)phenyl)benzamide], the pest or weed control at 50 µg/cm2 in test [1] (setting [3]) and in test [2] (setting [4]) was 50 to 100% each time. For the compound `O=C(Nc1ccccc1F)c1cc(NC(=O)[C@H]2[C@H](c3cc(Cl)cc(Cl)c3)C2(Cl)Cl)ccc1Cl` (relative stereo) [F17, trans-2-Chloro-5-(2,2-dichloro-3-(3,5-dichlorophenyl)cyclopropane-1-carboxamido)-N-(2-fluorophenyl)benzamide], the pest or weed control at 50 µg/cm2 in test [1] (setting [3]) and in test [2] (setting [4]) was 50 to 100% each time.

Consider `O=C(Nc1cccc(Cl)c1)c1cc(NC(=O)[C@H]2[C@H](c3cc(Cl)cc(Cl)c3)C2(Cl)Cl)ccc1Cl` (relative stereo) [F43, trans-2-Chloro-N-(3-chlorophenyl)-5-(2,2-dichloro-3-(3,5-dichlorophenyl)cyclopropane-1-carboxamido)benzamide], for which the pest or weed control at 50 µg/cm2 in test [1] (setting [3]) and in test [2] (setting [4]) was 50 to 100% in each case. For the compound `CSc1nc(NC(=O)c2cc(NC(=O)[C@H]3[C@H](c4cc(Cl)cc(Cl)c4)C3(Cl)Cl)ccc2Cl)n[nH]1` (relative stereo) [F184, trans-2-Chloro-5-(2,2-dichloro-3-(3,5-dichlorophenyl)cyclopropane-1-carboxamido)-N-(5-(methylthio)-1H-1,2,4-triazol-3-yl)benzamide], in test [1] (setting [3]), the pest or weed control at 50 µg/cm2 is 50 to 100%.

As to `Cc1cc(N(C)C(=O)OC(C)(C)C)ccc1NC(=O)c1cc(NC(=O)[C@H]2[C@H](c3ccc(F)c(Cl)c3)C2(Cl)Cl)ccc1Cl` (relative stereo) [F219, trans-tert-Butyl-(4-(2-chloro-5-(2,2-dichloro-3-(3-chloro-4-fluorophenyl)cyclopropane-1-carboxamido)benzamido)-3-methylphenyl)(methyl)carbamate], in test [2] (setting [4]), the pest or weed control at 50 µg/cm2 was in the range of 50 to 100%. Take `CNc1ccc(NC(=O)c2cc(NC(=O)[C@H]3[C@H](c4cc(Cl)cc(Cl)c4)C3(Cl)Cl)c(Cl)cc2Cl)cc1` (relative stereo) [F256, trans-2,4-dichloro-5-(2,2-dichloro-3-(3,5-dichlorophenyl)cyclopropane-1-carboxamido)-N-(4-(methylamino)phenyl)benzamide]: in test [2] (setting [4]), the pest or weed control at 50 µg/cm2 lay within 0 to 50%. In the case of `CC(C)(C)OC(=O)N(C(=O)OC(C)(C)C)c1c(F)ccc(NC(=O)c2cc(NC(=O)[C@H]3[C@H](c4cc(Cl)cc(Cl)c4)C3(Cl)Cl)ccc2Cl)c1F` (relative stereo) [F468, trans-tert-Butyl-N-((tert-butoxy)carbonyl)-N-(3-(2-chloro-5-(2,2-dichloro-3-(3,5-dichlorophenyl)cyclopropane-1-carboxamido)benzamido)-2,6-difluorophenyl)carbamate], the pest or weed control at 50 µg/cm2 in test [2] (setting [5]) is 0 to 50%.

For the compound `CC(C)(C)OC(=O)N1CCc2cc(NC(=O)c3cc(NC(=O)[C@H]4[C@H](c5cc(Cl)cc(Cl)c5)C4(Cl)Cl)ccc3Cl)ccc21` (relative stereo) [F509, tert-Butyl 5-(2-chloro-5-(trans)-(2,2-dichloro-3-(3,5-dichlorophenyl)cyclopropane-1-carboxamido)benzamido)indoline-1-carboxylate], in test [2] (setting [5]), the pest or weed control at 50 µg/cm2 lay within 0 to 50%. `CC(C)(C)OC(=O)N(C(=O)OC(C)(C)C)c1c(F)ccc(NC(=O)c2cc(NC(=O)[C@H]3[C@H](c4cc(Cl)cc(C#N)c4)C3(Cl)Cl)ccc2Cl)c1F` (relative stereo) [F515, trans-tert-Butyl-N-((tert-butoxy)carbonyl)-N-(3-(2-chloro-5-(2,2-dichloro-3-(3-chloro-5-cyanophenyl)cyclopropane-1-carboxamido)benzamido)-2,6-difluorophenyl)carbamate]: the pest or weed control at 50 µg/cm2 in test [1] (setting [6]) is 50 to 100%. Take `CCc1cc(C(F)(C(F)(F)F)C(F)(F)C(F)(F)F)cc(CC)c1NC(=O)c1cc(NC(=O)[C@H]2[C@H](c3cc(Cl)cc(Cl)c3)C2(Cl)Cl)ccc1Cl` (relative stereo) [PF59, trans-2-Chloro-5-(2,2-dichloro-3-(3,5-dichlorophenyl)cyclopropane-1-carboxamido)-N-(2,6-diethyl-4-(perfluorobutan-2-yl)phenyl)benzamide]: the pest or weed control at 50 µg/cm2 in test [2] (setting [5]) was in the range of 0 to 50%. Still for that read-out and setting: for `CCc1cc(C(F)(C(F)(F)F)C(F)(F)F)cc(CC)c1NC(=O)c1cc(NC(=O)[C@H]2[C@H](c3cc(Cl)cc(Cl)c3)C2(Cl)Cl)ccc1Cl` (relative stereo) [PF61, trans-2-Chloro-5-(2,2-dichloro-3-(3,5-dichlorophenyl)cyclopropane-1-carboxamido)-N-(2,6-diethyl-4-(perfluoropropan-2-yl)phenyl)benzamide] the value was 0 to 50%. As to `Cc1cc(N(C)C(=O)OC(C)(C)C)ccc1N(C)C(=O)c1cc(NC(=O)C2C(c3cc(Cl)c(Cl)c(Cl)c3)C2(Cl)Cl)ccc1Cl` [F221, trans-tert-Butyl-(4-(2-chloro-5-((1R,3R)-2,2-dichloro-3-(3,4,5-trichlorophenyl)cyclopropane-1-carboxamido)-N-methylbenzamido)-3-methylphenyl)(methyl)carbamate], the pest or weed control at 50 µg/cm2 in test [2] (setting [4]) was 50 to 100%. Consider `CC1(c2cc(Cl)cc(Cl)c2)C(C(=O)Nc2ccc(Cl)c(C(=O)Nc3ccc(F)cc3)c2)C1(Cl)Cl` (stereo not drawn) [F253, 2-Chloro-5-cis-2,2-dichloro-3-(3,5-dichlorophenyl)-3-methylcyclopropane-1-carboxamido)-N-(4-fluorophenyl)benzamide], for which the “CL (Biological Results, rating)” value in test [1] (Species CL (Cabbage Looper)) is on record as “A (50-100)”. Take `CC(C)(C)OC(=O)N(C(=O)OC(C)(C)C)c1c(F)ccc(NC(=O)c2cc(NC(=O)[C@H]3[C@H](c4cc(Cl)cc(Cl)c4)C3(Cl)Cl)ccc2Cl)c1F` [F499, tert-Butyl-N-((tert-butoxy)carbonyl)-N-(3-(2-chloro-5-((1R,3R)-2,2-dichloro-3-(3,5-dichlorophenyl)cyclopropane-1-carboxamido)benzamido)-2,6-difluorophenyl)carbamate]: the pest or weed control at 50 µg/cm2 in test [2] (setting [5]) is 50 to 100%. The same measure, in the same setting: for `CC(C)(C)OC(=O)N(C(=O)OC(C)(C)C)c1c(F)ccc(NC(=O)c2cc(NC(=O)[C@H]3[C@H](c4cc(Cl)c(Cl)c(Cl)c4)C3(Cl)Cl)ccc2Cl)c1F` [F501, tert-Butyl-N-((tert-butoxy)carbonyl)-N-(3-(2-chloro-5-((1R,3R)-2,2-dichloro-3-(3,4,5-trichlorophenyl)cyclopropane-1-carboxamido)benzamido)-2,6-difluorophenyl)carbamate] the value was 0 to 50%. Same read-out and setting: for `CC(C)(C)OC(=O)N(C(=O)OC(C)(C)C)c1c(F)ccc(NC(=O)c2cc(NC(=O)C3C(c4cc(Cl)cc(Br)c4)C3(Cl)Cl)ccc2Cl)c1F` (stereo not drawn) [F514, tert-Butyl-N-((tert-butoxy)carbonyl)-N-(3-(5-(3-(3-bromo-5-chlorophenyl)-2,2-dichlorocyclopropane-1-carboxamido)-2-chlorobenzamido)-2,6-difluorophenyl)carbamate] the value was 50 to 100%. Take `CC(C)(C)OC(=O)N(C(=O)OC(C)(C)C)c1c(F)cc(F)cc1NC(=O)c1cc(NC(=O)[C@H]2[C@H](c3cc(Cl)cc(Cl)c3)C2(Cl)Cl)ccc1Cl` [F521, tert-Butyl-N-((tert-butoxy)carbonyl)-N-(2-(2-chloro-5-((1R,3R)-2,2-dichloro-3-(3,5-dichlorophenyl)cyclopropane-1-carboxamido)benzamido)-4,6-difluorophenyl)carbamate]: the pest or weed control at 50 µg/cm2 in test [1] (setting [6]) lay in the range of 0 to 50%. In the case of `C=Cc1cc(Cl)cc(C2C(C(=O)Nc3ccc(Cl)c(C(=O)Nc4ccc(F)c(N(C(=O)OC(C)(C)C)C(=O)OC(C)(C)C)c4F)c3)C2(Cl)Cl)c1` (stereo not drawn) [F523, tert-Butyl-N-((tert-butoxyl)carbonyl)-N-(3-(2-chloro-5-(2,2-dichloro-3-(3-chloro-5-vinylphenyl)cyclopropane-1-carboxamido)benzamido)-2,6-difluorophenyl)carbamate], the pest or weed control at 50 µg/cm2 in test [2] (setting [5]) was 0 to 50%. For `O=C(Nc1cc(Cl)c(Cl)c(Cl)c1)c1cc(NC(=O)C2C(c3cc(Cl)cc(Cl)c3)C2(Cl)Cl)ccc1Cl` (stereo not drawn) [PF119, 2-Chloro-5-(trans)-2,2-dichloro-3-(3,5-dichlorophenyl)cyclopropane-1-carboxamido)-N-(3,4,5-trichlorophenyl)benzamide], in test [2] (setting [5]), the pest or weed control at 50 µg/cm2 was in the range of 50 to 100%.
